Measurements taken from patent US20240254174A1 (priority 2023, published 2024).
Several values for one entry are separate records, joined by “and”; a condition that tells them apart may be missing. Equal values may be shown once. Entries after “also recorded” stand apart in the source; their conditions may differ.

Tests used:
[1] = system: BDNF; format: cell-based
[2] = system: Pdcd4 protein; format: cell-based
[3] = system: BDNF; settings: mouse, in vivo
Target sequence in this assay (P21237 131-249): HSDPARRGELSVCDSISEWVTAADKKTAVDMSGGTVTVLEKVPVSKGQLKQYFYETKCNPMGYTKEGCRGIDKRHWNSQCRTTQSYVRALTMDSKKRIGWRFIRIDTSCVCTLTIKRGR

[4] = system: Pdcd4; settings: mouse, in vivo
Chain of Pdcd4 (Q61823 whole entry): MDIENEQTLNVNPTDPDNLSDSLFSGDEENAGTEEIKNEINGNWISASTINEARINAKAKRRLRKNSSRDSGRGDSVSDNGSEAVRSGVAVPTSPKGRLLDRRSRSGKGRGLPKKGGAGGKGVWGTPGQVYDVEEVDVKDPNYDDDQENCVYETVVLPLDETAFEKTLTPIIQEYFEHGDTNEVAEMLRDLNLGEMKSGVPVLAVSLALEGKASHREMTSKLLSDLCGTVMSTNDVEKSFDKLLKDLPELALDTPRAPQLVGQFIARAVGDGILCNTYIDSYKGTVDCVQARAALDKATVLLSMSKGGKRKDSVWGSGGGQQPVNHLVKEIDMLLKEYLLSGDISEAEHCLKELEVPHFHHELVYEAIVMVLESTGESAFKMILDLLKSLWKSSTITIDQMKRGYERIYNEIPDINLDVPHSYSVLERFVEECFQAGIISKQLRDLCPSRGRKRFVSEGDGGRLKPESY

[5] = molecular target: T1, α7 nAChR (Homo sapiens, UniProt P36544); experiment: cell-based; format: cell-based
T1 sequence (P36544 23-502 limits assumed): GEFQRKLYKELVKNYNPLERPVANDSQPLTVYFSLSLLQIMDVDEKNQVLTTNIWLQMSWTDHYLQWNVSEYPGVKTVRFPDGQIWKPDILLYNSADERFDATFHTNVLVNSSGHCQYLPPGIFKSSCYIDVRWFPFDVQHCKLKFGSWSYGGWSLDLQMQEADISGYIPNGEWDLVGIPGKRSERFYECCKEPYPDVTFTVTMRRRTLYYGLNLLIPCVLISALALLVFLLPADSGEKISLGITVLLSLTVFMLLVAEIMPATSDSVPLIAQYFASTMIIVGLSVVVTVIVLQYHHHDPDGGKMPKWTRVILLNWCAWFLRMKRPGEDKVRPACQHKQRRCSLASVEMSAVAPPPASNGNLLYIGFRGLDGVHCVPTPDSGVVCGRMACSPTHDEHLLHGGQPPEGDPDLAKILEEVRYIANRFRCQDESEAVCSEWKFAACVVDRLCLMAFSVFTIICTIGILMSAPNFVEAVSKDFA

[6] = molecular target: T1, α7 nAChR; experiment: cell-based; settings: read-out: inhibition of ACh-mediated currents on α7 nAChR
[7] = molecular target: α9α10 nAChR (Homo sapiens, UniProt Q9GZZ6+Q9UGM1); experiment: cell-based
Chain of α9α10 nAChR (Q9UGM1 26-479 limits assumed): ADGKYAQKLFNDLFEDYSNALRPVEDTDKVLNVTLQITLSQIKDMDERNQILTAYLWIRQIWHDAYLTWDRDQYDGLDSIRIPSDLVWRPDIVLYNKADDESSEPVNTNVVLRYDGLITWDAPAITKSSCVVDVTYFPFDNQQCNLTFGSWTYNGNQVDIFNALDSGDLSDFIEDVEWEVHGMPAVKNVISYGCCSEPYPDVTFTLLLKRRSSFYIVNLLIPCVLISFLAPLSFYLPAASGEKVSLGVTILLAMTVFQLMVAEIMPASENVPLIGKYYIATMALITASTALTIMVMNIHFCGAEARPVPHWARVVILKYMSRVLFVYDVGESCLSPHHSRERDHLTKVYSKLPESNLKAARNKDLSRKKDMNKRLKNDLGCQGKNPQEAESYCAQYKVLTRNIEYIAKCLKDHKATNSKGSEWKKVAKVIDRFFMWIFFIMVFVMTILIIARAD
Chain of α9α10 nAChR (Q9GZZ6 25-450 limits assumed): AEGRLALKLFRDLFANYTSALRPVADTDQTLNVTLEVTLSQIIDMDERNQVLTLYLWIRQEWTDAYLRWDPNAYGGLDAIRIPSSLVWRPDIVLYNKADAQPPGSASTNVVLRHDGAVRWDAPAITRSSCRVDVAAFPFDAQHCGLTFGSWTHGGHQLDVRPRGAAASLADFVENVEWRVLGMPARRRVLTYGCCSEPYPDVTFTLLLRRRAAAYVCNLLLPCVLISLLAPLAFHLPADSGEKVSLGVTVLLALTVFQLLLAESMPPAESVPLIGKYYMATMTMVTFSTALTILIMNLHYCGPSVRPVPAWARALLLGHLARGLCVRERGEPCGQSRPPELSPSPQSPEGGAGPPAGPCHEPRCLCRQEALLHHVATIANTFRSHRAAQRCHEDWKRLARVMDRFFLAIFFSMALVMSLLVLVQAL

[8] = system: nAChR subtypes; format: cell-based, Human
[9] = system: HEK cell lines
[10] = system: α7-nAChR transfected N2a cells; format: cell-based
[11] = system: non-transfected N2a cells
[12] = molecular target: α9α10 nAChR, expressed in Xenopus laevis oocytes (Human) (UniProt Q9UGM1); experiment: cell-based or functional assay
Chain of α9α10 nAChR, expressed in Xenopus laevis oocytes (Human) (Q9UGM1 23-479, chain 1 of 2): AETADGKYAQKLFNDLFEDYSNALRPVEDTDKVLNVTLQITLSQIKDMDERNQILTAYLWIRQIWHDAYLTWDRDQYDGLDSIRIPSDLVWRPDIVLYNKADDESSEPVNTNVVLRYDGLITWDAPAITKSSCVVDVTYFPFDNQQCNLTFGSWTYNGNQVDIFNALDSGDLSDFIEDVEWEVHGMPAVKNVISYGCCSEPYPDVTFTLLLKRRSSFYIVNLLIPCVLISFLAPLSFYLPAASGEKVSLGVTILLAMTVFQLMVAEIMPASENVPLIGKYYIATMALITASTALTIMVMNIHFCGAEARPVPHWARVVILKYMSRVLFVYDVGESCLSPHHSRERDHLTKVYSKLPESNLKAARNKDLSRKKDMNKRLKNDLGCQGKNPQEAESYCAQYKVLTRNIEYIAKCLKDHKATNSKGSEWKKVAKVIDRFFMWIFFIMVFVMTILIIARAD
Chain of α9α10 nAChR, expressed in Xenopus laevis oocytes (Human) (Q9GZZ6 25-450, chain 2 of 2, further chain): as the sequence (Q9GZZ6 25-450 limits assumed) above

[13] = molecular target: α7 nAChR (nicotinic acetylcholine receptor), expressed in Xenopus laevis oocytes (Human) (UniProt P36544); experiment: cell-based or functional assay
Chain of α7 nAChR (nicotinic acetylcholine receptor), expressed in Xenopus laevis oocytes (Human) (P36544 23-502): as the sequence (P36544 23-502 limits assumed) above

[14] = system: non-transfected HEK cells; format: cell-based, human
[15] = system: α7-nAChR transfected cells; format: cell-based
[16] = in vivo

With “5′-GAGGCUAUGAGAGAAUUUATT-FL-3′ [siPdcd4]” the BDNF production [1] was “enhance”, the “expression of Pdcd4 protein” value [2] was “knock down” and the “BDNF production in tissue” value [3] was “enhance”. The “Pdcd4 expression in tissue” value [4] was “decreases”.
With CC[C@H](C)[C@H](NC(=O)[C@H](CC(=O)O)NC(=O)[C@H](CS)NC(=O)[C@H](CO)NC(=O)[C@@H](NC(=O)CNC(=O)[C@H](CC(C)C)NC(=O)[C@H](CCCNC(=N)N)NC(=O)[C@@H]1CCCN1C(=O)[C@H](CC(N)=O)NC(=O)[C@H](CCC(=O)O)NC(=O)[C@@H]1CCCN1C(=O)[C@H](CCSC)NC(=O)[C@H](Cc1c[nH]c2ccccc12)NC(=O)[C@@H](NC(=O)[C@@H](NC(=O)[C@@H](N)Cc1ccc(O)cc1)[C@@H](C)O)[C@@H](C)CC)[C@@H](C)O)C(=O)N[C@@H](Cc1ccccc1)C(=O)N[C@H](C(=O)N[C@@H](CC(N)=O)C(=O)N[C@@H](CO)C(=O)N[C@@H](CCCNC(=N)N)C(=O)NCC(=O)N[C@@H](CCCCN)C(=O)N[C@@H](CCCNC(=N)N)C(=O)N[C@@H](C)C(=O)N[C@@H](CO)C(=O)N[C@@H](CCCCN)C(=O)NCC(=O)O)[C@@H](C)O [RVG peptide, reference compound] the IC50 ([5]; α7 nAChR potency (IC50, concentration response profile)) was 32 µM and 31 µM, the inhibition at 100 µM [6] was greater than 80% and the IC50 [7] was 153 ± 14 µM. The “inhibition of ACh-mediated currents on several other nAChR subtypes” value [8] was greater than 25%, the “nAChR subtype selectivity (in words)” value [8] was “not target specific; also recorded: slight preference for the α7-nAChR; also recorded: not very selective” and the neuro-/cytotoxicity [9] was “not neuro- or cyto-toxic”.
With CSCC[C@H](NC(=O)[C@H](CCCCN)NC(=O)[C@H](CCCNC(=N)N)NC(=O)[C@@H](N)Cc1ccc(O)cc1)C(=O)N[C@@H](Cc1c[nH]c2ccccc12)C(=O)N[C@@H](CCSC)C(=O)N1CCC[C@H]1C(=O)N[C@@H](CCC(=O)O)C(=O)N[C@@H](CC(N)=O)C(=O)N1CCC[C@H]1C(=O)N[C@@H](CCCNC(=N)N)C(=O)N[C@@H](CC(C)C)C(=O)NCC(=O)N[C@H](C(=O)N[C@@H](CO)C(=O)N[C@@H](CS)C(=O)N[C@@H](CC(=O)O)C(=O)N[C@@H](C)C(=O)N[C@@H](Cc1ccccc1)C(=O)N[C@@H](CS)C(=O)N[C@@H](CO)C(=O)N[C@@H](CO)C(=O)N[C@@H](CCCNC(=N)N)C(=O)NCC(=O)N[C@@H](CCCCN)C(=O)N[C@H](C(=O)N[C@H](C(=O)N[C@@H](CCC(=O)O)C(=O)N[C@@H](CC(C)C)C(=O)NCC(=O)O)C(C)C)C(C)C)[C@@H](C)O [lead peptide] the “α7 nAChR potency (IC50, concentration response profile)” value [5] was “low μM”, the “time to entry into neuronal-like cells post-exposure” value [10] was no more than 3 h and the “time visually present in neuronal-like cells” value [10] was “up to 72 hrs”. The “inhibition of ACh-mediated currents on no more than two subtypes (positive hit criterion)” value [8] was greater than 80%, the “inhibition of ACh-mediated currents on the other tested nAChR subtypes” value [8] was less than 25% and the “nAChR subtype selectivity (in words)” value [8] was “minimally targeting nine other nAChR subtypes; also recorded: high selectivity”. The neuro-/cytotoxicity [9] was “not neuro- or cyto-toxic”.
For CDAFCSSRGKVVELG [α-btx Region 3], the “effect of peptide regions on α7 nAChR mediated currents (in words)” value (“effect of peptide regions” below) [5] was “inhibit”.
For CDIFTNSRGKRASKG [RVG Region 3], the “effect of peptide regions” value [5] was “slightly antagonizes”.
With DMSO the “cell viability, positive control” value [11] was “kills cells”.
For MPENPRLGTS [RVG Region 2], the “effect of peptide regions” value [5] was “minimal effects”.
“RVG peptide (rabies viral glycoprotein peptide)” showed a potency (concentration response profile, inhibition of ACh-mediated currents) [12] of 153 µM, a potency (concentration response profile, inhibition of ACh-mediated currents) [13] of 31 µM and a potency (concentration response, inhibition of ACh-mediated currents) [13] of 32 µM.
With YRKMW [α-btx Region 1] the “effect of peptide regions” value [5] was “inhibit”.
With “YRKMWMPENPRLGTSCDAFCSSRGKVVELGRRRRRRRRR [lead CPP-9dR]” the “delivery of siPdcd4-FL into non-transfected HEK cells” value [14] was “not into non-transfected HEK cells”, the “delivery of siPdcd4-FL into α7-nAChR transfected cells” value [15] was “can facilitate delivery” and the “siPdcd4-FL delivery into mouse CNS” value [16] was “can facilitate siPdcd4-FL delivery into mouse CNS”. For the same molecule, the brain regional distribution ([16]; mouse) was “accumulate in the hippocampus and prefrontal cortex”.
For YTIW [RVG Region 1], the “effect of peptide regions” value [5] was “minimal effects”.
For α-bungarotoxin [reference compound], the “cell entry / labeling (in words)” value [10] was “unable to enter”.
